Assay results from patent US20250230413A1, “METHODS AND SYSTEMS FOR THE CULTURE OF CELLS AT LIQUID-LIQUID INTERFACES” (Queen Mary University of London, priority 2022, published 2025).

Key:
iPSCs = assay: Cardiomyocyte differentiation of iPSCs on βLG-SMCC-VN microdroplets or EBs, flow cytometry of TNNT2+; assay type: cell-based, human; settings: differentiation initiated 2 days after seeding, CDM3 medium
Procedure: Embryoid bodies Formation. Polyvinyl alcohol (PVA) was dissolved in E8 flex medium overnight to achieve a concentration of 4% PVA. This was then filtered and supplemented with 10 μM Y-27632. iPSCs were dissociated with Gentle Cell Dissociation Reagent according to manufacturer's instructions. After centrifugation, cells were counted. An aliquot of the cell suspension is then taken and centrifuged at 120×g for 3 minutes. The cell pellet was then resuspended in E8 flex with PVA and Y-27632 to achieve a cell concentration of 1×10^6 cells/mL. A petri dish was then filled with sterile water. The lid was then placed upside down and multiple 10 μL drops of the cell suspension was then placed on the lid. The lid was then placed back on the petri dish resulting in hanging droplets. After 24 hours, 30 embryoid bodies were transferred to a well of an ultra-low attachment 6-well plate filled with E8 flex medium.
Cardiomyocyte Differentiation. The iPSCs were seeded on microdroplets and tissue culture plastic controls in E8 flex medium supplemented with Y-27632, a ROCK inhibitor. After 24 hours, the medium was replaced with E8 flex medium. […]
Flow Cytometry. […] Cells were then counted and stained with the staining solution for surface markers. […] Stained cells were analysed with BD LSRII. […] The data was analysed using FlowJo software.

MSCs [1] = assay: Growth of MSCs at crosslinked βLG and BSA nanosheets (Novec 7500 interfaces); assay type: cell-based, human; settings: MSCs growing for 5 days; interfaces crosslinked by sulfo-SMCC (1 mg/ml, pH 7.4), fibronectin coupled
Procedure: (§1) Human Bone Marrow Derived Mesenchymal Stem Cell culture and seeding. hBM-MSCs were purchased from PromoCell and cultured according to the supplier's recommendations.
Generation of fluorinated pinned droplets for cell culture. Thin glass slides (25×60 mm, VWR) were washed with isopropanol and dried under nitrogen, prior to plasma oxidation for 10 min (Henniker Plasma HPT-200). Slides were then placed into an anhydrous ethanol solution (9.5 mL) containing trichloro-1H,1H,2H,2H-perfluorooctyl silane (97%, Sigma-Aldrich) (500 μL) for 1 h, at room temperature. The fluorinated glass slides were cut into chips (1×1 cm) and placed into a 24 well plate (for Hoechst staining), or the glass slides were kept at their original dimensions and embedded on sticky-slide 8 wells plates (Ibidi), for imaging on a confocal microscope. After sterilization with 70% ethanol, the wells were washed (once) and then filled with 2 mL (or 600 μL for the sticky wells) of PBS (pH 7.4 for βLG, Fibrinogen and different BSA types, and pH 10.5 for poly(L-lysine), PLL). 100 μL of fluorinated oil (or 10 μL for the sticky wells), with or without fluorinated surfactant (10 μg/mL) were added to the surface of the glass slide, forming a fluorinated pinned droplet. For samples prepared in 24 well plates, 30 μL of the oil phase was removed using a micropipette, to form a flatter oil droplet. […]
Immuno-fluorescence staining.

HEK293T cells = settings: HEK293T on BSA interfaces for 22 days
Procedure: Cell seeding on emulsions. HEK293T cells, human iPSCs, Human primary keratinocytes and human MSCs were cultured according to manufacturer's instructions. For cell culture, 500 μL of corresponding medium was transferred per well in a 24 well plate treated with 25 μg/mL poly(L-lysine)-graft-polyethylene glycol (PLL-g-PEG, SuSoS). Then, 100 μL of emulsion were transferred per well. Different cell densities were used depending on the cell type. Being 10^4 cells/well for HEK293T, 4×10^4 cells/well for iPSCs, and 4×10^4 cells/well for MSCs.
Proliferation assay CCK8. Proliferation assays were performed using the Cell Counting Kit-8 (Dojindo, Kumamoto, Japan). HEK293T growing on emulsions were incubated with 100 μl CCK-8 reagent for 4 hours at 37° C. over different time-points, and optical density at 450 nm was measured.

MSCs [2] = assay: Scale-up growth of MSCs on fluorinated oil/MA-BSA bioemulsions in 250 ml flask; assay type: cell-based, human; settings: 15 days, 250 ml flask under agitation
Procedure: as §1
RGD peptide coupling to biofunctionalised BSA. For the preparation of emulsions, RGD peptide coupling to functionalized BSA molecules was performed first. RGD peptide concentration was determined for each functionalized BSA formulation to enable coupling of 10 peptides per BSA molecule. Custom peptides were designed to allow reaction with functional groups in the modified BSA backbone. GCGGRGDSPG peptide was coupled to NB-BSA via […] in the presence of 1% lithium phenyl-2,4,6-trimethylbenzoylphosphinate (LAP, Sigma-Aldrich), crosslinking was performed with 405 nm blue light for 3 min. at 20 mW/cm2. CGGRGDSPG peptide was conjugated to AC-BSA and MA-BSA via […] in PBS pH 9 for at least 3 hours. The same procedure was used for FITC-RGD bearing peptides.
Conical flask bioreactor scale-up. Scale up of the MA-BSA bioemulsions system was performed on 250 ml polycarbonate Erlenmeyer flasks (Corning) with Vent caps, using a total amount of medium of 50 ml. […] Cell numbers/surface area used in bioemulsions and 2D conditions were the same (1000 cells/cm^2) and calculated assuming and average diameter of 100 μm for the bioemulsions. […]

## Cc1c[nH]c(-c2cnc(NCCNc3ccc(C#N)cn3)nc2-c2ccc(Cl)cc2Cl)n1 [CHIR99021]
iPSCs; CHIR99021 6 μM, varying Wnt-C59
  Percentage of TNNT2+ (whether differentiation works): consistently works across conditions except for 230 μm microdroplets when 5 μM of Wnt-C59 is used
iPSCs; higher CHIR99021 concentration (above 6 μM)
  Percentage of TNNT2+ (whether differentiation works): only works for microdroplets and only when followed by 5 μM Wnt-C59

## Bovine Serum Albumin [BSA]
MSCs [1]
  cell adhesion to the interface (vinculin staining): excellent cell adhesion
HEK293T cells
  proliferation after long-term culture: high proliferation

## MS-BSA: methacrylated BSA
MSCs [2]
  coverage of bioemulsion surface by cells: cells cover all the available surface of the bioemulsions
